The text below walks through data of PMC12040169 (PLOS Biology, 2025).

A short description of the first series: in vitro. The note with it: human, hela cells.
Regarding `CS(=O)(=O)c1ccc(-c2ccc3c(c2)CCN(C2CCN(C(=O)Oc4ccccc4)CC2)C3)cc1` [CBK169518], the viability at 28.5 h, 10 µM was determined as 90.1%.

Staying with this series, now noted: human, hela cells, % viability.
With `O=C(Nc1ccccc1Cl)N1CCN(CCN2CCOCC2)CC1` [CBK155824], the viability at 28.5 h, 10 µM amounted to 89.4%.

With `CCCCCC(=O)Nc1ccc(S(=O)(=O)Nc2nnc(CC)s2)cc1` [CBK045478], the viability at 28.5 h, 10 µM amounted to 89%.

Regarding `CC(C)CNCC1CC(C(=O)N2CCC(Cc3ccccc3)CC2)=NO1` (stereo not drawn) [CBK003718C], the viability at 28.5 h, 10 µM was determined as 89.7%.

Turning to `CCc1nnc(SCC(=O)Nc2ccc(CN3CCOCC3)cc2)[nH]1` [CBK306097], the viability at 28.5 h, 10 µM was 84.7%.

`O=C(O)c1ccccc1NC(=O)N1CCc2[nH]cnc2C1c1cccc(F)c1` (stereo not drawn) [CBK286824]: the viability at 28.5 h, 10 µM came out at 93.7%.

For the compound `Nc1ncnc2c1nc1n2[C@@H]2O[C@@H]([C@H](O)C2O)[C@H]1O` (stereo partly drawn) [CBK201305], the viability at 28.5 h, 10 µM came out at 98.1%.

Turning to `Clc1nc2ccccc2nc1OCCOc1ccccc1` [CBK113367], the viability at 28.5 h, 10 µM is 108%.

Regarding `CC(C)(C)OC(=O)N[C@@H](Cc1ccccc1)C(=O)NC[C@H]1CC[C@H](C(=O)O)CC1` [CBK286719], the viability at 28.5 h, 10 µM is 81.9%.

As for `O=S(=O)(CC(F)(F)F)N(c1ccccc1)C1CCNCC1` [CBK165093T], the viability at 28.5 h, 10 µM stood at 92.6%.

As to `O=C(O)C12CC3CC(C(=O)O)(C1)CC(C(=O)O)(C3)C2` [CBK263442], the viability at 28.5 h, 10 µM amounted to 84.4%.

On to `COc1ccc2[nH]cc(CC(=O)N3CCCC4(CCN(C(=O)c5ccc(OC)c(OC)c5)C4)C3)c2c1` (stereo not drawn) [CBK131666], for which the viability at 28.5 h, 10 µM was found to be 81.1%.

In the case of `CN1CCC(N(C)C(=O)NCc2c(Cl)cccc2Cl)C1` (stereo not drawn) [CBK156014], the viability at 28.5 h, 10 µM was 99%.

As for `Cc1cc(C)nc(NC(=O)OCCc2ccncc2)c1` [CBK138233], the viability at 28.5 h, 10 µM stood at 93.9%.

As to `O=C(c1ccc2[nH]c(=O)[nH]c2c1)N1CCCC2(CCN(Cc3ccccc3)C2)C1` (stereo not drawn) [CBK137149], the viability at 28.5 h, 10 µM was 91.7%.

For the compound `Cc1c(S(=O)(=O)Nc2ccc(C(=O)c3ccccc3)cc2)cnn1-c1ccccc1` [CBK051034], the viability at 28.5 h, 10 µM was determined as 96.5%.

Consider `COC(=O)c1c(NC(=S)Nc2cnccn2)sc2c1CCC(C)C2` (stereo not drawn) [CBK266893], for which the viability at 28.5 h, 10 µM was determined as 94.2%.

As to `Cc1ccccc1Sc1ccc(C(F)(F)F)cn1` [CBK115237], the viability at 28.5 h, 10 µM amounted to 112%.

Consider `O=C(Nc1cccnc1)c1c(O)n(Cc2ccccc2)c2ccccc2c1=O` [CBK291206], for which the viability at 28.5 h, 10 µM was determined as 110%.

Turning to `CN(C)CCN(Cc1ccncc1)Cc1cc(F)cc(F)c1` [CBK283096], the viability at 28.5 h, 10 µM worked out at 94.9%.

Regarding `OCCn1ncc2c(Nc3cccc(Cn4cncn4)c3)ncnc21` [CBK305965], the viability at 28.5 h, 10 µM was found to be 115%.

Consider `Cc1ccc(SCC(=O)Nc2ccc(O)cc2C(=O)O)cc1` [CBK131703], for which the viability at 28.5 h, 10 µM worked out at 118%.

On to `COc1ccc(SC(C)C(=O)N2CCN(c3ccc([N+](=O)[O-])nc3)CC2)cc1` (stereo not drawn) [CBK298282], for which the viability at 28.5 h, 10 µM was 93.5%.

`Cc1ccc(C(=O)NCc2cccnc2N(C)C2CCCCC2)cn1` [CBK306514]: the viability at 28.5 h, 10 µM came to 116%.

As to `COc1ccc2cc(CNc3ccc(F)c(F)c3)c(=O)[nH]c2c1` [CBK281934], the viability at 28.5 h, 10 µM came to 83%.

Regarding `Cc1ccc2nc(Cl)c(/C=N/NC(=O)CN3CCOCC3)cc2c1` [CBK262731], the viability at 28.5 h, 10 µM stood at 91.2%.

For the compound `CC1(C)Cc2nc(N3CCOCC3)ncc2C(NC(=O)c2cccs2)C1` (stereo not drawn) [CBK307369], the viability at 28.5 h, 10 µM was found to be 92.7%.

For the compound `COc1cc(CN2CCOC3(CCN(C(=O)OCc4ccccc4)CC3)C2)cc(OC)c1OC` [CBK161104T], the viability at 28.5 h, 10 µM was determined as 79.4%.

For the compound `CCOc1ccsc1C(=O)Nc1cc2ccccc2c(N2CCNCC2)n1` [CBK036341T], the viability at 28.5 h, 10 µM is 99.3%.

In the case of `O=C(CSCc1ccc([N+](=O)[O-])cc1)Nc1ccc(O)cc1C(=O)O` [CBK131710], the viability at 28.5 h, 10 µM was 89.4%.

With `Cc1ccc(-c2nnc(-c3cccc(NC(=O)CSCc4ccc(Cl)cc4)c3)o2)cc1` [CBK266789], the viability at 28.5 h, 10 µM was found to be 92.3%.

Regarding `Cc1noc(C2(O)CCN(Cc3cccc(Cl)c3F)C2)n1` (stereo not drawn) [CBK304748], the viability at 28.5 h, 10 µM stood at 99.3%.

As for `Cn1ccnc1C(NC(=O)N1CCOc2ccc(Cl)cc2C1)C1CC1` (stereo not drawn) [CBK307212], the viability at 28.5 h, 10 µM came out at 91%.

Regarding `Cc1ccc(N2CC(C(=O)Nc3ccc(S(=O)(=O)NCC4CCCO4)cc3)CC2=O)cc1` (stereo not drawn) [CBK267532], the viability at 28.5 h, 10 µM was found to be 91.7%.

`O=C(O)CCC(=O)N1N=C(c2c(-c3ccccc3)c3cc(Br)ccc3[nH]c2=O)CC1c1ccc([N+](=O)[O-])cc1` (stereo not drawn) [CBK267543]: the viability at 28.5 h, 10 µM stood at 104%.

Turning to `CN(C)C(C)(C)COc1ncccc1OCCO` [CBK042184], the viability at 28.5 h, 10 µM stood at 112%.

In the case of `O=S(=O)(CC(F)(F)F)Nc1ccc(-c2nnn[nH]2)cc1` [CBK154754], the viability at 28.5 h, 10 µM was 107%.

On to `Nn1c(SCC(=O)Nc2ccc3c(c2)oc2ccccc23)nnc1-c1ccc(Cl)cc1Cl` [CBK265090], for which the viability at 28.5 h, 10 µM came out at 91.7%.

`CCN1CCCC1CNC(=O)c1ccc(C)nc1NCCCn1ccnc1` (stereo not drawn) [CBK076382]: the viability at 28.5 h, 10 µM turned out to be 90.7%.

As to `CC(=O)Nc1ccc(S(=O)(=O)NC2(C(F)(F)F)NC(=O)N(C3CCCC3)C2=O)cc1` (stereo not drawn) [CBK268100], the viability at 28.5 h, 10 µM amounted to 84.6%.

As to `CC(C(=O)N1CCC(O)(c2ccccn2)CC1)c1ccccc1` (stereo not drawn) [CBK282396], the viability at 28.5 h, 10 µM was 102%.

Consider `CN(C)CCCN1C(=O)C(O)=C(C(=O)c2ccc(F)cc2)C1c1ccco1` (stereo not drawn) [CBK264456], for which the viability at 28.5 h, 10 µM is 94.6%.

Consider `Oc1cccc(/C=N/Nc2nncc(-c3ccccc3)n2)c1` [CBK262468], for which the viability at 28.5 h, 10 µM was found to be 86.6%.

For `COc1cncc(-c2ccc(Nc3ccc(OC)nc3)nc2)c1` [CBK037773], the viability at 28.5 h, 10 µM was found to be 103%.

For `Cc1cccnc1NC(=O)c1ccc(NCCc2ccccc2)c([N+](=O)[O-])c1` [CBK269543], the viability at 28.5 h, 10 µM is 96.1%.

Turning to `Cc1ccc(C(=O)NCc2cccnc2)c(N2CCN(C(=O)c3ccco3)CC2)n1` [CBK076444], the viability at 28.5 h, 10 µM worked out at 83.9%.

Regarding `CS(=O)(=O)N1CCc2cc(C(=O)Cn3nc(C(=O)O)c4ccccc4c3=O)ccc21` [CBK297000], the viability at 28.5 h, 10 µM was found to be 80.4%.

For the compound `C/C(=N\NC(=O)c1nc(-c2ccccc2)cc(-c2ccccc2)n1)c1cccnc1` [CBK262827], the viability at 28.5 h, 10 µM turned out to be 90.2%.

`COc1ccccc1-c1cccc(CC2(C(=O)NCCc3ccccc3)CCOCC2)c1` [CBK285593]: the viability at 28.5 h, 10 µM was 93.6%.

Consider `O=C(O)c1ccc(Cl)c(S(=O)(=O)N2CCCC2C(=O)O)c1` (stereo not drawn) [CBK265733], for which the viability at 28.5 h, 10 µM stood at 103%.

Regarding `CC(NC(=O)/C=C\C(=O)O)c1ccc2c(c1)OCO2` (stereo not drawn) [CBK286996], the viability at 28.5 h, 10 µM amounted to 93.3%.

Turning to `COc1ccc(C)cc1-n1ccc(C(=O)NCC2(C)CCCS2)n1` (stereo not drawn) [CBK305355], the viability at 28.5 h, 10 µM is 83.3%.

Regarding `CCc1nnc(N/N=C/c2cccs2)n1N` [CBK026233C], the viability at 28.5 h, 10 µM is 97.9%.

For the compound `CCCCN(C)c1c(C)nc2c(OCC3CCCCO3)cccn12` (stereo not drawn) [CBK147180], the viability at 28.5 h, 10 µM amounted to 103%.

In the case of `OCC1CCC(O)C(CO)N1` (stereo not drawn) [CBK022827C], the viability at 28.5 h, 10 µM was found to be 86.5%.

With `O=C(c1cc(F)c(F)cc1F)N1CCC2(CCN(Cc3nc4ccccc4[nH]3)C2)C1` (stereo not drawn) [CBK132134], the viability at 28.5 h, 10 µM is 89.9%.

On to `Cn1c(-c2ccc(-c3nc4cnccc4n3C)cc2)nc2cnccc21` [CBK261423], for which the viability at 28.5 h, 10 µM amounted to 106%.

Regarding `c1cnc2c(-c3cn4ccnc4c(NC4CC4)n3)cccc2c1` [CBK037911], the viability at 28.5 h, 10 µM amounted to 111%.

With `COC(=O)c1cn(C(=O)COc2ccc(Cl)cc2)c2ccccc12` [CBK262598], the viability at 28.5 h, 10 µM is 87%.

For the compound `CCN(C(=O)c1n[nH]c2c1CCC2)C1CCN(C)CC1` [CBK281870], the viability at 28.5 h, 10 µM is 102%.

As to `CC1=NN(c2ccc(S(=O)(=O)O)cc2)C(=O)/C1=C/C=C/c1c(C)nn(-c2ccc(S(=O)(=O)O)cc2)c1O` [CBK278317K], the viability at 28.5 h, 10 µM turned out to be 94.6%.

Consider `COc1cc(-c2ccc(/N=C/c3ccccc3O)c(OC)c2)ccc1/N=C/c1ccccc1O` [CBK261089], for which the viability at 28.5 h, 10 µM was 101%.

With `O=C(c1c(F)cccc1F)N1CCC(c2cc3cccnc3[nH]2)CC1` [CBK284997], the viability at 28.5 h, 10 µM was 91.5%.

`COC1C(O)C(CO)OC1n1cc(C)c(=O)[nH]c1=O` (stereo not drawn) [CBK201251]: the viability at 28.5 h, 10 µM came to 103%.

Take `Cc1[nH]c(=O)c(C#N)c(C)c1CCC(=O)NCc1cn2ccccc2n1` [CBK306325]: the viability at 28.5 h, 10 µM stood at 93%.

With `COc1ccc(C(=O)N[C@@H]2CN(Cc3ccc(CO)o3)CCC[C@H]2O)cc1` [CBK289067], the viability at 28.5 h, 10 µM worked out at 89.8%.

For the compound `CC(C)(C)OC(=O)C1(NC(=O)Cc2cn3ccccc3n2)CCCC1` [CBK305500], the viability at 28.5 h, 10 µM came out at 95.9%.

For `O=C(Nc1nnc(-c2ccco2)o1)c1ccccc1` [CBK287420], the viability at 28.5 h, 10 µM was determined as 96.3%.

Take `Cn1c(=O)n(CC(=O)N2CCC(C(=O)NC(c3ccccc3)c3ccccn3)CC2)c2ccccc21` (stereo not drawn) [CBK060494]: the viability at 28.5 h, 10 µM is 96%.

For the compound `O=C(N/N=C/C=N/NC(=O)c1ccccc1O)c1ccccc1O` [CBK261430], the viability at 28.5 h, 10 µM is 98.2%.

With `CCC(c1ccccc1)N1CCN(Cc2noc(C)n2)CC1` (stereo not drawn) [CBK305084], the viability at 28.5 h, 10 µM was 90.3%.

Regarding `CC1Oc2ccc(S(=O)(=O)Nc3ccc(CCC(=O)O)cc3)cc2NC1=O` (stereo not drawn) [CBK299769], the viability at 28.5 h, 10 µM came out at 92.3%.

As for `CC1CCc2c(C(=O)N(C)CC(=O)NC(C)(C)C)csc2C1` (stereo not drawn) [CBK305002], the viability at 28.5 h, 10 µM came out at 97.5%.

For the compound `O=C(c1ccco1)N1CCC[C@H]1[C@H](O)c1nccs1` [CBK284286], the viability at 28.5 h, 10 µM was found to be 98.5%.

Take `CCOC1=NCCN2CCc3cccc1c32` [CBK023113]: the viability at 28.5 h, 10 µM stood at 117%.

For `Cc1cc(C)cc(NC(=O)N2CCN(c3nccnc3NS(C)(=O)=O)CC2)c1` [CBK048877], the viability at 28.5 h, 10 µM was found to be 105%.

For the compound `O=S(=O)(Nc1nnn[nH]1)c1ccc(-c2cc(C(F)(F)F)on2)s1` [CBK062393], the viability at 28.5 h, 10 µM turned out to be 96.9%.

Still in this series, the particulars now being: human, hela cells, % viability, bulk resorufin, single well.
For the compound `C=CCN1C(=O)NC(=O)C(CCc2ccccn2)(CCc2ccccn2)C1=O` [CBK268761], the viability at 28.5 h, 10 µM is 104%.

As usually defined, the viability is a read-out of living cells in per cent, often relative to untreated cells.
